Reference: patent US6921539B2, “Antimicrobial therapeutic compositions and method of use” (priority 2002, dated 2005)

Columns and labels:
[1] = tested on: acute bronchio pneumonia; assay: In Vivo Treatment of Pneumonia in Sheep, control group (Example 9); conditions: 15 i.m. injections of 2 ml every 8 hours
Excerpt: (§1) For example, a normalization of body temperature, the animal has begun to eat if not eating before treatment, the specific symptoms (e.g., diarrhea, coughing, etc.) have ceased.
(§2) Treatments of procarvol by injection were through methods and techniques normally used by those in the agricultural field.
(§3) The following examples are from a control group. These were similar animals and received standard conventional antibiotic treatment with accepted veterinary treatment protocols.
A 60 day old male sheep with an initial weight of 40 lbs (18 kg) was afflicted with acute bronchio pneumonia. Symptoms included fever and difficult breathing. The sheep had been positively diagnosed for […]. The sheep had been treated previously with penicillin. The therapy included 15 intramuscular injections of 2 ml Procaine penicillin G every 8 hours. The temperature of the sheep over the course of treatment is shown below.

[2] = inactive metabolites after degradation by enzymes; cited from earlier work
[3] = cited from earlier work
[4] = tested on: Steptococcus uberis; assay: In Vivo Treatment of Mastitis in Cow, control group (Example 14); conditions: 8 i.m. injections of 8 ml every 12 hours
Excerpt: as §1, §2, §3
A four (4) year old […] Holstein cow with an initial weight of 1000 lbs (454 kg) was afflicted with mastitis. Symptoms included edema on the udder, and poor quality milk. The cow had been positively diagnosed for Steptococcus uberis. The cow had been previously treated with penicillin and streptomycin. The therapy included eight (8) intramuscular injections of 8 ml of ampicillin every 12 hours. The temperature of the cow over the course of treatment is shown below.

[5] = tested on: acute bronchio pneumonia; assay: In Vivo Treatment of Pneumonia in Pig, control group (Example 13); conditions: 8 i.m. injections of 8 ml every 12 hours
Excerpt: as §1, §2, §3
A three and one half (3½) month old male Landras pig with an initial weight of 80 lbs (36 kg) was afflicted with acute bronchio pneumonia. Symptoms included coughing, fever, and loss of appetite. The pig had been positively diagnosed for pneumonia. The pig had not been treated previously. The therapy included eight (8) intramuscular injections of 8 ml of ampicillin every 12 hours. The temperature of the pig over the course of treatment is shown below.

[6] = tested on: Escherichia coli; assay: In Vivo Treatment of Colibacilosis in Pig, control group (Example 8); conditions: 2 i.m. injections of 2 ml every 12 hours
Excerpt: as §1, §2, §3
A three (3) week old female Landras pig with an initial weight of 19 lbs (9 kg) was afflicted with Escherichia coli colibacilosis. Symptoms included diarrhea. The pig had been positively diagnosed for the bacterium Escherichia coli. The pig had been treated previously with ampicillin and colicisit. The therapy included two (2) intramuscular injections of 2 ml of ampicillin every 12 hours. The temperature of the pig over the course of treatment is shown below.

[7] = tested on: Escherichia Coli; assay: In Vivo Treatment of Colibacilosis in Calf, control group (Example 12); conditions: 5 i.m. injections of 5 ml and infusion of electrolytes every 12 hours
Excerpt: as §1, §2, §3
A 15 day old male Holstein calf with an initial weight of 90 lbs (41 kg) was afflicted with Escerichia coli colibacilosis. Symptoms fever, diarrhea, dehydration, and loss of appetite. The calf had been positively diagnosed for Escherichia Coli. The calf had not been treated previously. The therapy included five (5) intramuscular injections of 5 ml ampicillin and also the infusion of electrolytes every 12 hours. The temperature of the calf over the course of treatment is shown below.

## CC1(C)S[C@@H]2[C@H](NC(=O)Cc3ccccc3)C(=O)N2[C@H]1C(=O)O.CCN(CC)CCOC(=O)c1ccc(N)cc1 [Procaine penicillin G]
[1]
  outcome of treatment: successful recovery

## Cc1ccc(C(C)C)cc1O [carvacrol, 5-isopropyl-2-methylphenol]
[2]
  metabolites excreted in the urine: approx. 90%
  metabolites expired from the lungs in the form of carbon dioxide (CO2): 10%
[3]
  solubility in lipids: soluble in lipids

## Cc1ccc(C(C)C)c(O)c1 [thymol, 5-methyl-2[1-methylethyl]phenol]
[2]
  metabolites excreted in the urine: approx. 90%
  metabolites expired from the lungs in the form of carbon dioxide (CO2): 10%

## CC1(C)S[C@@H]2[C@H](NC(=O)[C@H](N)c3ccccc3)C(=O)N2[C@H]1C(=O)O [ampicillin]
[4]
  outcome of treatment: successful recovery
[5]
  outcome of treatment: successful recovery
[6]
  outcome of treatment: died as a result of the infection
[7]
  outcome of treatment: died as a result of the infection
